In patent US20110009435A1, “HETERO BICYCLIC CARBOXAMIDE DERIVATIVES AND THEIR PHARMACEUTICAL USE AND COMPOSITIONS” (Pfizer, Inc., priority 2007, published 2011):

Tests used:
Type in all cases: biochemical
Human recombinant MMP-12 = target: T1, Human recombinant MMP-12 (Homo sapiens, UniProt P39900); assay: In vitro MMP inhibition assay, MMP-12 catalytic domain (fluorogenic peptide substrate cleavage, Ki); details: human MMP-12, catalytic domain (CD); read-out: hMMP Ki 12/CD
T1 construct: The catalytic domain of MMP-12 and MMP-15 enzymes were purchased commercially for these assays; purchased
T1 sequence (P39900 106-263 limits assumed): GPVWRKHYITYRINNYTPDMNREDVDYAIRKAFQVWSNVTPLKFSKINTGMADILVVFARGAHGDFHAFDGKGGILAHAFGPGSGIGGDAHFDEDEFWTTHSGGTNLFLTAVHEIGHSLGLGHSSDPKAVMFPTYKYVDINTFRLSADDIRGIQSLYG
Protocol: (§1) Matrix Metalloproteinase inhibitor compounds were analyzed in in vitro MMP Inhibition assays to determine their ability to inhibit the MMP cleavage of peptide substrates. Inhibition constants (Ki) were calculated from the assayed compound-MMP interactions.
(§2) Human recombinant MMP-1, MMP-2, MMP-3, MMP-7, MMP-9, MMP-12, MMP-13, MMP-14 and MMP-15 were used in these assays. The enzymes are prepared following known laboratory procedures. Protocols for the preparation and use of these enzymes are available in the scientific literature. See, e.g., Enzyme Nomenclature (Academic Press, San Diego, Calif., 1992) and the citations therein. See also Frije et al., J. Biol. Chem., 26(24), 16766-73 (1994).
(§3) The catalytic domain of MMP-12 and MMP-15 enzymes were purchased commercially for these assays.
(§4) The fluorogenic, methoxycoumarin-containing polypeptide substrate MCA-ArgProLeuGlyLeuDpaAlaArgGluArgNH2 was used as the MMP substrate in the MMP inhibition assays for human recombinant MMP-1, MMP-2, MMP-7, MMP-9, MMP-12, MMP-13, MMP-14 and MMP-15. Here, “MCA” is 7-methoxycoumarin-4-yl acetyl and “Dpa” is 3-(2,4-dinitrophenyl)-L-2,3-di-aminopropionyl group. In the absence of MMP inhibitory activity, the substrate is cleaved at the Gly-Leu peptide bond. The cleavage separates the highly fluorogenic peptide from the 2,4-dinitrophenyl quencher, resulting in an increase of fluorescent intensity.
(§5) For the human MMP-1, MMP-2, MMP-7, MMP-9, MMP-12, MMP-13, MMP-14 and MMP-15 assays, dilutions of the inhibitors (or salts thereof) were prepared in 100% dimethyl sulfoxide (DMSO). The stock solutions were diluted in Buffer A (100 mM Tris-HCl, 100 mM NaCl, 10 mM CaCl2, 0.005% polyoxyethylene 23 lauryl ether, pH 7.5) to obtain solutions with different compound concentrations, i.e., assay solutions with different concentrations of the assayed MMP inhibitory compound in 1% DMSO. The experiment controls contained the same amount of Buffer A/DMSO as the assayed sample, but contained no inhibitor.
(§6) To determine Ki, the inhibitor samples are incubated at room temperature for 1 hr in the presence of enzyme and then 4 μM of appropriate MMP substrate was added, and samples were analyzed on a Tecan SpectraFlour Plus plate reader. The excitation wavelength is 330 nm, and the emission (fluorescence) wavelength is 420 nm. In the absence of MMP inhibitory activity, the substrate is cleaved at the Gly-Leu bond resulting in an increase of relative fluorescence. Inhibition is observed as a reduced rate of increase in relative fluorescence.
(§7) The inhibitors are analyzed using a single low enzyme concentration with a single substrate concentration fixed at or below the Km. This protocol is a modification of method by Knight et al., FEBS Lett., 296(3), 263-266 (1992). Apparent inhibitory constants are determined by non-linear regression of reaction velocity as a function of inhibitor and enzyme concentration using Morrison's equation, as described by Kuzmic, Anal. Biochem. 286, 45-50 (2000). Modifications were made in the non-linear regression method to allow a common control reaction rate and effective enzyme concentration to be shared between all dose-response relationships on a given assay plate. Since the substrate concentration was chosen to be at or below the Km, the apparent Ki's from this analysis were reported as Ki's without correction for the influence of substrate.

Human recombinant MMP-14 = target: T2, Human recombinant MMP-14 (Homo sapiens, UniProt P50281); assay: In vitro MMP inhibition assay, MMP-14 catalytic domain (fluorogenic peptide substrate cleavage, Ki); details: human MMP-14, catalytic domain (CD); read-out: hMMP Ki 14/CD
T2 construct: The MMP-14 cDNA may be used to express the catalytic domain enzyme in E. coli inclusion bodies; made in house
Protocol: as §1, §2
The MMP-14 cDNA may be used to express the catalytic domain enzyme in E. coli inclusion bodies. Then the enzyme is solubilized in urea, purified on a preparative […] reverse phase HPLC column, and refolded in the presence of zinc acetate and purified for use.
as §4, §5, §6
as §7, with “Since the substrate concentration was chosen to be at or below the Km, the apparent Ki's from this analysis were reported as Ki's without correction for the influence of substrate.” left out

Human recombinant MMP-15 = target: T3, Human recombinant MMP-15 (Homo sapiens, UniProt P51511); assay: In vitro MMP inhibition assay, MMP-15 catalytic domain (fluorogenic peptide substrate cleavage, Ki); details: human MMP-15, catalytic domain (CD); read-out: hMMP Ki 15/CD
T3 construct: The catalytic domain of MMP-12 and MMP-15 enzymes were purchased commercially for these assays; purchased
T3 sequence (P51511 132-304 limits assumed): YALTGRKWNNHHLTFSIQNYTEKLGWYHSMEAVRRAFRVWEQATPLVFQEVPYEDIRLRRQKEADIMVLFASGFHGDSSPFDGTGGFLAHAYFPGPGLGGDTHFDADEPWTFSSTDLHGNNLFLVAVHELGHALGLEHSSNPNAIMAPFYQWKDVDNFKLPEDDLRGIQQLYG
Protocol: as §1, §2, §3, §4, §5, §6, §7

[1] = target: T4, catalytic domain of human recombinant MMP-3 (Homo sapiens, UniProt P08254); assay: In vitro MMP inhibition assay, MMP-3 catalytic domain (fluorogenic peptide substrate cleavage, Ki); details: human MMP-3, catalytic domain (CD); read-out: hMMP Ki 03/CD
T4 construct: made in house
T4 sequence (P08254 100-272 limits assumed): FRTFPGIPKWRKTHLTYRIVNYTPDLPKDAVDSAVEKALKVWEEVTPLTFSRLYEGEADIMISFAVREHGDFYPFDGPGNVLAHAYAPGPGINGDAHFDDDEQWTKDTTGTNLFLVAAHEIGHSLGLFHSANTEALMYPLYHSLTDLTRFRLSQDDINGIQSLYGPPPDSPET
Protocol: as §1, §2
The catalytic domain MMP-3 cDNA may be used to express the catalytic domain enzyme in E. coli inclusion bodies. Then the enzyme is solubilized in urea, purified on a preparative […] reverse phase HPLC column, and refolded in the presence of zinc acetate and purified for use.
The fluorogenic, methoxycoumarin-containing polypeptide substrate Mca-Arg-Pro-Lys-Pro-Val-Glu-Nva-Trp-Arg-Lys(Dnp)-NH2 (Bachem catalog number M-2110) was used as the MMP substrate in the MMP inhibition assays for catalytic domain of human recombinant MMP-3 (which refers to the catalytic domain of stromelysin). Here, “MCA” is 7-methoxycoumarin-4-yl acetyl and “Dpa” is 3-(2,4-dinitrophenyl)-L-2,3-di-aminopropionyl group. In the absence of MMP inhibitory activity, the substrate is cleaved at the Gly-Leu peptide bond. The cleavage separates the highly fluorogenic peptide from the 2,4-dinitrophenyl quencher, resulting in an increase of fluorescent intensity.
For the human MMP-3 assay, dilutions of the inhibitors (or salts thereof) were prepared in 100% DMSO. The stock solutions were diluted in Buffer B (50 mM N-morpholinoethane sulfonate (“MES”), 100 mM NaCl, 10 mM CaCl2, 0.005% polyoxyethylene 23 lauryl ether, pH 6.0)) to obtain solutions with different compound concentrations, i.e., assay solutions with different concentrations of the assayed MMP inhibitory compound in 1% DMSO. The experiment controls contained the same amount of Buffer B/DMSO as the assayed sample, but contained no inhibitor.
as §6, §7

Human recombinant MMP-13 = target: T5, Human recombinant MMP-13 (Homo sapiens, UniProt P45452); assay: In vitro MMP inhibition assay, MMP-13 (fluorogenic peptide substrate cleavage, Ki); details: human MMP-13, full length (FL); read-out: hMMP Ki 13/FL
T5 construct: made in house; host or cells: baculovirus expression (insect cells)
Protocol: as §1, §2
The MMP-13 may be obtained as a proenzyme from a full-length cDNA clone using baculovirus expression, as described by V. A. Luckow, “Insect Cell Expression Technology,” Protein Engineering: Principles and Practice, pp. 183-218 (edited by J. L. Cleland et al., Wiley-Liss, Inc., 1996). The expressed proenzyme was first purified over a heparin agarose column, and then over a chelating zinc chloride column. Further details on baculovirus expression systems may be found in, for example, Luckow et al., J. Virol., 67, 4566-79 (1993). See also O'Reilly et al, Baculovirus Expression Vectors: A Laboratory Manual (W. H. Freeman and Co., New York, N.Y., 1992). See also King et al., The Baculovirus Expression System: A Laboratory Guide (Chapman & Hall, London, England, 1992).
All full length MMPs were activated using 4-aminophenylmercuric acetate (“APMA”, Sigma Chemical, St. Louis, Mo.) or trypsin. MMP-9 also was activated using human recombinant MMP-3 following standard cloning and purification techniques.
as §4, §5, §6
The inhibitors are analyzed using a single low enzyme concentration with a single substrate concentration fixed at or below the Km. This protocol is a modification of method by Knight et al., FEBS Lett., 296(3), 263-266 (1992). Apparent inhibitory constants are determined by non-linear regression of reaction velocity as a function of inhibitor and enzyme concentration using Morrison's equation, as described by Kuzmic, Anal. Biochem. 286, 45-50 (2000). […]

Row | Compound | Ki (Human recombinant MMP-12) | Ki (Human recombinant MMP-14) | Ki (Human recombinant MMP-15) | Ki [1] | Ki (Human recombinant MMP-13)
1 | COc1cc(CNC(=O)c2nc3scc(COC[C@H]4CC[C@H](NC(C)=O)CC4)c3c(=O)[nH]2)ccc1F [Example 19, 5-({[trans-4-(Acetylamino)cyclohexyl]methoxy}methyl)-N-(4-fluoro-3-methoxybenzyl)-4-oxo-3,4-dihydrothieno[2,3-d]pyrimidine-2-carboxamide] | > 10000 nM | > 10000 nM | > 10000 nM | 1220 nM | 2.48 nM
2 | COc1cccc(CNC(=O)c2nc3ccc(F)c(OCCC4CCN(S(C)(=O)=O)CC4)c3c(=O)[nH]2)c1 [Example 31, 6-fluoro-N-(3-methoxybenzyl)-5-{2-[1-(methylsulfonyl)piperidin-4-yl]ethoxy}-4-oxo-3,4-dihydroquinazoline-2-carboxamide] |  |  |  | 1280 nM | 0.085 nM
3 | COc1cc(CNC(=O)c2nc3scc(COC[C@H]4CC[C@H](C#N)CC4)c3c(=O)[nH]2)ccc1F [Example 14, N-(4-Fluoro-3-methoxybenzyl)-5-(((trans-4-cyanocyclohexyl)methoxy)methyl)-4-oxo-3,4-dihydrothieno[2,3-d]pyrimidine-2-carboxamide] |  |  |  | 350 nM | 0.479 nM
4 | COc1cccc(CNC(=O)c2nc3scc(COC[C@H]4CC[C@H](CNS(C)(=O)=O)CC4)c3c(=O)[nH]2)c1 [Example 25, N-(3-methoxybenzyl)-5-[({trans-4-[(methylsulfonyl)aminomethyl]cyclohexyl}methoxy)methyl]-4-oxo-3,4-dihydrothieno[2,3-d]pyrimidine-2-carboxamide] |  |  |  | 512 nM | 0.566 nM
5 | COc1cccc(CNC(=O)c2nc3ccc(F)c(OCCC4CCN(CCO)CC4)c3c(=O)[nH]2)c1 [Example 35, 6-fluoro-5-{2-[1-(2-hydroxyethyl)piperidin-4-yl]ethoxy}-N-(3-methoxybenzyl)-4-oxo-3,4-dihydroquinazoline-2-carboxamide] |  |  |  | 5200 nM | 4.15 nM
6 | COc1cc(CNC(=O)c2nc3scc(COC[C@@H]4CO[C@@H](C(=O)O)CO4)c3c(=O)[nH]2)ccc1F (relative stereo) [Example 12, Trans-5-(((2-((4-Fluoro-3-methoxybenzyl)carbamoyl)-4-oxo-3,4-dihydrothieno[2,3-d]pyrimidin-5-yl)methoxy)methyl)-1,4-dioxane-2-carboxylic acid] |  |  |  | 668 nM | 1.62 nM
7 | COc1cc(CNC(=O)c2nc3scc(COC[C@H]4CC[C@H](C(=O)O)CC4)c3c(=O)[nH]2)ccc1F [Example 10, Trans-4-(((2-((4-Fluoro-3-methoxybenzyl)carbamoyl)-4-oxo-3,4-dihydrothieno[2,3-d]pyrimidin-5-yl)methoxy)methyl)cyclohexanecarboxylic acid] |  |  |  | 163 nM | 0.143 nM
8 | COc1cc(CNC(=O)c2nc3scc(COC[C@@H]4CO[C@@H](C(N)=O)CO4)c3c(=O)[nH]2)ccc1F (relative stereo) [Example 15, N-(4-Fluoro-3-methoxybenzyl)-5-(((trans-5-carbamoyl-1,4-dioxan-2-yl)methoxy)methyl)-4-oxo-3,4-dihydrothieno[2,3-d]pyrimidine-2-carboxamide] |  |  |  | 960 nM | 4.04 nM
9 | COc1cccc(CNC(=O)c2nc3scc(COCCC4CCN(S(C)(=O)=O)CC4)c3c(=O)[nH]2)c1 [Example 27, N-(3-methoxybenzyl)-5-({2-[1-(methylsulfonyl)piperidin-4-yl]ethoxy}methyl)-4-oxo-3,4-dihydrothieno[2,3-d]pyrimidine-2-carboxamide] |  |  |  | 779 nM | 1.78 nM
10 | COc1cccc(CNC(=O)c2nc3scc(COC[C@H]4CC[C@H](NS(C)(=O)=O)CC4)c3c(=O)[nH]2)c1 [Example 16, N-(3-Methoxybenzyl)-5-[({trans-4-[(methylsulfonyl)amino]cyclohexyl}methoxy)methyl]-4-oxo-3,4-dihydrothieno[2,3-d]pyrimidine-2-carboxamide] |  |  |  | 533 nM | 0.41 nM
11 | COc1cccc(CNC(=O)c2nc3ccc(F)c(OC[C@H]4CO[C@H](CO)CO4)c3c(=O)[nH]2)c1 (relative stereo) [Example 3, 6-Fluoro-5-{[(trans-2,5)-5-(hydroxymethyl)-1,4-dioxan-2-yl]methoxy}-N-(3-methoxybenzyl)-4-oxo-3,4-dihydroquinazoline-2-carboxamide] |  |  |  | 8580 nM | 16.4 nM
12 | COc1cccc(CNC(=O)c2nc3ccc(F)c(OC[C@H]4CC[C@H](CO)CC4)c3c(=O)[nH]2)c1 [Example 29, 6-fluoro-5-{[trans-4-(hydroxymethyl)cyclohexyl]methoxy}-N-(3-methoxybenzyl)-4-oxo-3,4-dihydroquinazoline-2-carboxamide] |  |  |  | 1600 nM | 0.374 nM
